Experiments:
pupil [1] = test: Pupil diameter after sequential intracameral injections in a sedated rabbit (Example 1); type: in vivo, New Zealand albino rabbit; conditions: for Pupil Diameter: 5 min after injection
Protocol: One New Zealand albino rabbit (2-4Kg) was sedated with an intramuscular injection of a 1:1 mixture of ketamine (Vetalar, Parke-Davis and xylazine (Rompum, Haver-Lockhart). The pupil diameters of both eyes were measured under standard room lighting with an optistick and recorded. The right eye was injected intracamerally with 100ng of thromboxane B₂ (12ul). The contralateral eye was injected with an equal volume of the vehicle solution, 0.05% BSA (Bovine Serum Albumin) in 0.01N CH₃COOH. Hamilton syringes with 30 gauge needles were used for the injection. Five minutes later the pupil diameters of both eyes were measured and recorded. Sequential injections of thromboxane B₂ (Sigma) were made into the right eye and an equal volume of vehicle into the left. Five minutes after each injection the pupil diameters were measured and recorded. A total of three injections of thromboxane B₂ (TXB2) were administered to the right eye; 100ng, 1ug, 10ug (12ul). After the last injection of TXB2, carbachol, 200ng (lul) was administered to both eyes, intracamerally, and the pupil diameters were measured after five minutes.

pupil [2] = test: Pupil diameter after intracameral injection in flurbiprofen-pretreated sedated rabbits (Example 2); type: in vivo, New Zealand albino rabbits
Protocol: Seven New Zealand albino rabbits were treated, topically, with 0.03% flurbiprofen (Ocufen, Allergan) every 1/2 hour for two hours to inhibit endogenous synthesis of thromboxane. Following flurbiprofen treatment the rabbits were sedated with a 1:1 mixture of Ketamine and Rompum and the pupil diameters of both eyes were measured and recorded as before. 50ug (6ul) of TXB2 was injected intracamerally into the right eye of each rabbit and an equal volume of vehicle was administered to the left eyes. The pupil diameters were measured five minutes following the injections. This does of TXB2 was chosen because it is 1000 times the concentration of TXB2 found in clotting blood in rabbits (Ali and Mohammed, 1986). Carbachol 200ng (1ul) was injected into both eyes and the pupil diameters recorded after a five minute and a ten minute duration.
Refer to Figure 1. Next, both eyes were injected with 200ng (1ul) of carbachol.

pupil [3] = test: Pupil diameter after intracameral injection in flurbiprofen-pretreated sedated cats (Example 3); type: in vivo, domestic cats; conditions: cat
Protocol: Fifteen male and female domestic cats were treated topically with 0.03% flurbiprofen (in both eyes) every 1/2 hours for two hours to inhibit endogenous thromboxane synthesis. The cats were sedated with 0.5 to 0.75ml of Rompum (20mg/ml) by intramuscular injection. […] The pupil diameters of both eyes were measured with an optistick and recorded. The right eye of each cat was injected intracamerally with one concentration of thromboxane B₂ ranging from a high of 500ng (10ul) to a low of 10ng (10ul). The contralateral eye was injected with an equal volume of the vehicle: saline. The pupil diameters were measured five and ten minutes after the injections. The cats were allowed to regain consciousness while in the laboratory.
Increasing concentrations of TXB2 led to greater constriction of the pupil (miosis). Maximum constriction of the pupil occurred at a dose of 500ng. The ED₅₀ was 70ng. Refer to Figure 2. […] The filled circles are the mean pupil diameters of the TXB2 treated eyes. The pupil diameters of the vehicle treated eyes are shown by the open circles.

pupil [4] = test: Pupil diameter after topical drops in awake monkeys (Example 4); type: in vivo, Cebus apella monkeys; conditions: Cebus monkeys, total dose per eye 2.5 micrograms to 1 mg
Protocol: Eight Cebus apella monkeys were treated topically with thromboxane B₂ in one eye and normal saline in the contralateral eye. The monkeys were awake and alert and seated in primate chairs for the duration of the experiment. The thromboxane B₂ concentrations used were 0.625ug, 1.25ug, 6.25ug, 12.5ug, 62.5ug, 125.0ug and 250ug per drop. A 50ul drop was administered following the baseline pupil diameter measurement. Three more drops were given at 15 minute intervals. Total dose per eye after 4 drops ranged between 2.5 micrograms and 1 mg. Pupil diameter was measured just before each administration. The last measurement was taken at 60 minutes.
In the eight Cebus monkeys with TXB2-treated eyes, the pupil diameters decreased 0.75 to […] at 30 minutes.
The range of doses used probably represented the upper end of the dose-response curve. The 0.75 to […] pupil constriction represents a significant response in the small Cebus eye.

## C[N+](C)(C)CCOC(N)=O [Carbachol, carbachol, reference compound]
Pupil [1]; rabbit #8394, carbachol 200ng (1ul) intracameral, both eyes
  pupil constriction: constricted an expected amount
Pupil [1]; rabbit #8394, eye OD (previously TXB2 treated), carbachol 200ng intracameral
  Pupil Diameter: 3 mm
Pupil [1]; rabbit #8394, eye OS (previously vehicle treated), carbachol 200ng intracameral
  Pupil Diameter: 1.5 mm
Pupil [2]; carbachol 200ng (1ul) injected into both eyes after TXB2 or vehicle, measured after 5 and 10 min
  Pupil Diameter: decreased significantly and to the same degree in both eyes

## CCCCC[C@H](O)/C=C/[C@H]1OC(O)C[C@H](O)[C@@H]1C/C=C\CCCC(=O)O (some centres unmarked) [TXB2, thromboxane B₂]
Pupil [1]; rabbit #8394, eye OD, TXB2 100ng intracameral (12ul), baseline 6.0
  Pupil Diameter: 5 mm
Pupil [1]; rabbit #8394, eye OD, second sequential TXB2 dose 1ug intracameral
  Pupil Diameter: 5 mm
Pupil [1]; rabbit #8394, eye OD, third sequential TXB2 dose 10ug intracameral
  Pupil Diameter: 5.5 mm
Pupil [1]; rabbit #8394, three sequential intracameral doses 100ng, 1ug and 10ug
  changes in pupil diameter: no significant changes in pupil diameter
Pupil [2]; rabbits, topical 0.03% flurbiprofen pretreatment, TXB2 50ug intracameral, then carbachol 200ng
  ability of the pupillary sphincter to contract when stimulated by carbachol: nor TXB2 administration affected the ability of the pupillary sphincter to contract
Pupil [2]; seven rabbits, 0.03% flurbiprofen pretreatment, 50ug (6ul) intracameral, 5 min after injection
  pupil diameters versus vehicle eyes: no different from those eyes receiving vehicle
Pupil [3]; intracameral, doses 10ng to 500ng (10ul)
  dose at which maximum constriction of the pupil occurred: 500 ng
Pupil [3]; intracameral, doses 10ng to 500ng, measured 5 and 10 min after injection
  effect on pupil diameter: dose-related effect on pupil diameter
Pupil [3]; pupil constriction (miosis), intracameral doses 10ng to 500ng (10ul), flurbiprofen pretreatment
  ED₅₀: 70 ng
Pupil [4]
  dose-response relationship of pupil constriction: no dose-response relationship was observed

Source: patent publication EP0310322A2, “Use of thromboxane B2 to constrict the pupil and lower intraocular pressure” (ALLERGAN, INC, priority 1987, dated 1989)
